From EP3577173B1, “COMPOSITIONS CONTAINING FATTY ACID ESTERS OF VEGETABLE ORIGIN AS SOLVENTS” (Benessere, Vincenzo, priority 2017, dated 2018)

Key:
[1] = Dissolution time of resin in solvent until the solution is clear (base for coating materials); assay type: physicochemical; settings: magnetic stirring, time when solution becomes clear and no deposit is found
Method: Three commercial solvents (D100, mineral oil; 7129, 2-ethylhexyl palmitate; PARYOL TMC 810T, caprylic/capric triglyceride) and the solvents described in examples 1-4 were used. The resins of Example 1 and the chosen solvent were placed on a heating plate under magnetic stirring at 80 °C for one hour, and then allowed to cool to ambient temperature for 24 hrs. Table 1. ROSIN MODIFIED ESTER RESIN BASED PAINTS

[2] = Dynamic light scattering of 5% by weight resin solution (solvent power); assay type: physicochemical; settings: DLS
From the text: A first assessment of the higher solvent power of pelargonic acid esters with respect to the classical solvents can be performed by means of the analysis of the data obtained with the dynamic light scattering technique (SMD 6000 Laser Quantum apparatus,50 mW source of light beam at 532.5 nm) carried out on the solution at 5% by weight of modified phenolic (Table 3) and Maleic (Table 4)Resin, solubilized with traditional mineral solvents (base mineral oilD100), traditional vegetal oil (RADIA 7129) and the solvents of the present invention. The DLS technique (Dynamic Light Scattering) allows to monitor the intensity depending on time of the light scattered by an object into a solution. The speed of fluctuation of the light intensity depends on the speed with which the element capable of generating such scattering moves into a solution; the latter is described by the diffusion coefficient D, which is related to the size of the particles into the solution, in particular to the hydrodynamic radius RI of a ball moving in a solvent having a viscosity η, according to the Stokes-Einstein equation: D = (kT)/(6πηRi) [formula] where k is the Boltzmann constant and T is the temperature.
The measurements of the dynamic light scattering allowed to evaluate the capacity of different solvents, used to disperse the two resins, to generate sub-micrometric aggregates: K16 and a maleic resin. This dispersion capacity is linked to the solvent capacity of individual substances. The lower is the size of aggregates, the better is the solvent power for the solute concerned. In the case of the present invention, the solvent consists of the compounds of general formula (I) and solutes are modified PHENOLIC RESINS and MALEIC RESINS. In this case, the smaller is the hydrodynamic radius, better is the solvation degree of the resin by the solvent, which is therefore better than solvents giving a lower solvation degree, and therefore a larger hydrodynamic radius relative to the same resins. The hydrodynamic radii found by DLS for the solvents used by us are the lowest compared to the other commercially available solventsstudied. The high solvent power, therefore confirmed by the hydrodynamic radius, has a huge impact on the paint final properties and on the production mode. The final properties are affected by the fact that the higher solvent power of our compounds allows to dissolve the rosin and maleic resins up to 70% by weight, and therefore allow to produce paints having a high degree of gloss and very high surface resistance, since these latter properties depend on the amount of resin that a solvent can dissolve to form a paint. In addition, the production mode of the paint was performed at 80°C instead of 200°C because our compounds are more solvent with respect to the commercially available ones and need a lower operating temperature in order to dissolve completely and appropriately the resins concerned.
Actually, in samples having a good resin dispersion, which are clear, particles with sub-micrometric size (2-300 nm) are obtained; sizes are associated with the presence of more or less large aggregates. In the extreme cases of precipitation phenomena (> 1000 nm), the sample appears cloudy, and this is associated with a very poor resin dispersion.
In our case, from the data shown in Tables 1 and 2 of Example 3 it can be clearly seen that […] for the solvents of the invention, and therefore the size of the aggregates, is considerably lower than in solvents commercially available at present for dispersing modified phenolic resins and maleic resins. […] A 5% w/w modified synthetic phenolic resin was used for the mixtures to be tested by DLS obtained industrially by esterification of rosin with pentaerythritol, and subsequent polymerization with phenol, trade name SIRIUS XVI, supplied by YSER. The Maleic Resin used is Perseus I supplied by Yser. Table 3. ROSIN MODIFIED ESTER RESIN

[3] = 5% w/w Perseus I resin in the solvent
[4] = 5% w/w SIRIUS XVI resin in the solvent

Row | Compound | 45% resin (dissolution time at 80 °C, min) ([1]; maleic resin) [min] | 45% resin (dissolution time at 80 °C, min) ([1]; rosin modified ester resin) [min] | Hydrodynamic radius (nm) [2, 3] [nm] | Polydispersity index [2, 3] | Hydrodynamic radius (nm) [2, 4] [nm] | Polydispersity index [2, 4] | 55% resin (dissolution time at 80 °C, min) ([1]; maleic resin) | 55% resin (dissolution time at 80 °C, min) ([1]; rosin modified ester resin) | aggregate sizes ([2]; maleic resin dispersed in the solvent) | aggregate sizes ([2]; modified phenolic resin dispersed in the solvent)
1 | CCCCCC(=O)OCCCC [CAOBu, butyl caproate] | >60 | >60 |  |  |  |  | A clear solution is not obtained after 4 hrs | A clear solution is not obtained after 2 hrs |  | 
2 | CCCCCC(=O)OCC(CC)CCCC (stereo not shown) [CAOEtEs, 2-ethyl-hexyl caproate] |  | >60 |  |  |  |  |  | A clear solution is not obtained after 2 hrs |  | 
3 | CCCCCC(=O)OC(C)C [CAOiPr, isopropyl caproate] | >60 | >60 |  |  |  |  | A clear solution is not obtained after 4 hrs | A clear solution is not obtained after 2 hrs |  | 
4 | CCCCCCCCCCCC(=O)OC(C)C [LAOiPr, isopropyl laurate] | >60 | >60 |  |  |  |  | A clear solution is not obtained after 2 hrs | A clear solution is not obtained after 2 hrs |  | 
5 | CCCCCCCCC(=O)OCC(CC)CCCC (stereo not shown) [PAOEtEs, 2-ethyl-hexyl pelargonate] | 60 | 50 |  |  |  |  | Clear solution | Clear solution |  | 
6 | CCCCCCCCC(=O)OC [PAOMe, methylpelargonate] | 10 | 15 | 1.7±0.6 | 0.90±0.42 | 8.9 ± 0.9 | 0.76±0.11 | 15 min | 16 min |  | 
7 | CCCCCCCCC(=O)OC(C)C [PAOiPr, isopropyl pelargonate] | 10 | 13 | 2.74±0.11 | 1.0±0.3 | 9.2 ± 1.3 | 0.64±0.14 | 15 min | 15 min |  | 

Continued, in another order:

Row | 45% resin (dissolution time at 80 °C, min) ([1]; maleic resin) [min] | 45% resin (dissolution time at 80 °C, min) ([1]; rosin modified ester resin) [min] | Hydrodynamic radius (nm) [2, 3] [nm] | Polydispersity index [2, 3] | Hydrodynamic radius (nm) [2, 4] [nm] | Polydispersity index [2, 4] | Compound | 55% resin (dissolution time at 80 °C, min) ([1]; maleic resin) | 55% resin (dissolution time at 80 °C, min) ([1]; rosin modified ester resin) | aggregate sizes ([2]; maleic resin dispersed in the solvent) | aggregate sizes ([2]; modified phenolic resin dispersed in the solvent)
8 | >60 | >60 |  |  |  |  | CCCCCCOC(=O)CCCCC [CAOEs, hexyl caproate] | A clear solution is not obtained after 4 hrs | A clear solution is not obtained after 2 hrs |  | 
9 | >60 | >60 |  |  |  |  | CCCCCCCCOC(=O)CCCCC [CAOOt, octyl caproate] | A clear solution is not obtained after 4 hrs | A clear solution is not obtained after 2 hrs |  | 
10 | >60 | >60 |  |  |  |  | CCCCCCCCCCCC(=O)OCCCC [LAOBu, butyl laurate] | A clear solution is not obtained after 2 hrs | A clear solution is not obtained after 2 hrs |  | 
11 | >60 | >60 |  |  |  |  | CCCCCCCCCCCC(=O)OCCCCCC [LAOEs, hexyl laurate] | A clear solution is not obtained after 2 hrs | A clear solution is not obtained after 2 hrs |  | 
12 | >60 | >60 |  |  |  |  | CCCCCCCCCCCC(=O)OCC(CC)CCCC (stereo not shown) [LAOEtEs, 2-ethyl-hexyl laurate] | A clear solution is not obtained after 2 hrs | A clear solution is not obtained after 2 hrs |  | 
13 | >60 | >60 |  |  |  |  | CCCCCCCCCCCC(=O)OCCCCCCCC [LAOOt, octyl laurate] | A clear solution is not obtained after 2 hrs | A clear solution is not obtained after 2 hrs |  | 
14 | 15 | 13 | 2.34 ± 0.8 | 0.70±0.06 | 12.9 ± 0.4 | 0.71±0.06 | CCCCCCCCC(=O)OCCCC [PAOBu, butylpelargonate] | 20 min | 14 min |  | 
15 |  | >60 |  |  |  |  | CCCCCCCCCCCCCCCC(=O)OCC(CC)CCCC (stereo not shown) [Solvent 7129, 2-ethylhexyl palmitate] |  | A clear solution is not obtained after 2 hrs | exceeding the limit of detectability by DLS | exceeding the limit of detectability by DLS
